From ChEMBL document CHEMBL1201862, “PubChem BioAssay data set” (2004)
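1) Cells in 96-well plates. 2) Compound, 48 h, 5 concentrations. 3) Linear interpolation between surrounding doses. 4) Unreached endpoint = highest concentration. At the GI50, growth is halved.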 Active and inactive are the calls of the source. Cut-off read from the data, not from the text of the source: active = GI50 up to about 1.1 µM and inactive = higher.

Key:
Assay in all cases: growth of human tumour cells (NCI), 48 h
SW-620 = system: SW-620
DMS-273 = system: DMS-273
HCC 2998 = system: HCC 2998
OVCAR-3 = system: OVCAR-3
ACHN = system: ACHN
UACC-257 = system: UACC-257
DMS-114 = system: DMS-114
M14 = system: M14
HT-29 = system: HT-29
COLO 205 = system: COLO 205
SNB-78 = system: SNB-78
A549 = system: A549
786-0 = system: 786-0
CCRF-CEM = system: CCRF-CEM
CAKI-1 = system: CAKI-1
HOP-92 = system: HOP-92
OVCAR-5 = system: OVCAR-5
SF-268 = system: SF-268
UACC-62 = system: UACC-62
OVCAR-8 = system: OVCAR-8
HCT-15 = system: HCT-15
A498 = system: A498
UO-31 = system: UO-31
NCI-H522 = system: NCI-H522
K562 = system: K562
SNB-19 = system: SNB-19
IGROV-1 = system: IGROV-1
KM-20L2 = system: KM-20L2
M19-MEL = system: M19-MEL
SK-OV-3 = system: SK-OV-3
NCI-H23 = system: NCI-H23
RXF 393 = system: RXF 393
SK-MEL-5 = system: SK-MEL-5
U-251 = system: U-251
LOX IMVI = system: LOX IMVI
SK-MEL-28 = system: SK-MEL-28
NCI-H460 = system: NCI-H460
NCI-H226 = system: NCI-H226
RPMI-8226 = system: RPMI-8226
OVCAR-4 = system: OVCAR-4
TK-10 = system: TK-10
SF-539 = system: SF-539
SK-MEL-2 = system: SK-MEL-2
DLD-1 = system: DLD-1
XF498 = system: XF498
EKVX = system: EKVX
Malme-3M = system: Malme-3M
SNB-75 = system: SNB-75
HOP-62 = system: HOP-62
HL-60 = system: HL-60
KM12 = system: KM12
LXFL 529 = system: LXFL 529
SN12C = system: SN12C
HCT-116 = system: HCT-116
MOLT-4 = system: MOLT-4
SR = system: SR
SF-295 = system: SF-295

Measured: GI50

CSC1C=C(C(C)C)CCC1(C)SC (stereo not drawn)
21 µM: HCT-15
inactive: SW-620 19.9 µM | DMS-273 19 µM | HCC 2998 16.6 µM | OVCAR-3 12.6 µM | ACHN 18.7 µM | UACC-257 15.9 µM | DMS-114 15.7 µM | M14 16.9 µM | HT-29 15.4 µM | COLO 205 16.2 µM | SNB-78 16.5 µM | A549 31.5 µM | 786-0 17.8 µM | CCRF-CEM 21 µM | CAKI-1 18.3 µM | HOP-92 16.2 µM | OVCAR-5 16.2 µM | SF-268 20.6 µM | UACC-62 25.6 µM | OVCAR-8 19.4 µM | A498 25.6 µM | UO-31 14.3 µM | NCI-H522 16.3 µM | K562 16.7 µM | SNB-19 21.2 µM | IGROV-1 20.9 µM | KM-20L2 28.2 µM | M19-MEL 16.9 µM | SK-OV-3 21.4 µM | NCI-H23 19.3 µM | RXF 393 15.5 µM | SK-MEL-5 17.5 µM | U-251 19.5 µM | LOX IMVI 18.3 µM | SK-MEL-28 19.4 µM | NCI-H460 17.2 µM | NCI-H226 17.4 µM | RPMI-8226 20.9 µM | OVCAR-4 18.1 µM | TK-10 21.4 µM | SF-539 18.7 µM | SK-MEL-2 17.7 µM | DLD-1 18 µM | XF498 19.6 µM | EKVX 24.5 µM | Malme-3M 13.3 µM | SNB-75 17.6 µM | HOP-62 19.5 µM | HL-60 2.3 µM | KM12 14.3 µM | LXFL 529 18.4 µM | SN12C 16.9 µM | HCT-116 19.2 µM | MOLT-4 16.5 µM

CCC(C)(C)n1c(C)nc2c1C(=O)c1ccccc1C2=O
inactive: SW-620 44.7 µM | DMS-273 11.8 µM | HCC 2998 45.8 µM | OVCAR-3 30.7 µM | ACHN 32.9 µM | UACC-257 33.5 µM | M14 42.5 µM | HT-29 31.6 µM | COLO 205 17 µM | SNB-78 46.5 µM | A549 36.5 µM | 786-0 39.5 µM | CCRF-CEM 29.7 µM | SR 9.33 µM | SF-268 29.6 µM | UACC-62 13.5 µM | OVCAR-8 36.1 µM | UO-31 25.7 µM | NCI-H522 28.4 µM | K562 13.6 µM | SNB-19 53.3 µM | IGROV-1 34 µM | KM-20L2 38.6 µM | M19-MEL 15.7 µM | SK-OV-3 44.9 µM | SF-295 38.9 µM | NCI-H23 27.7 µM | RXF 393 21.1 µM | SK-MEL-5 15.7 µM | U-251 28.8 µM | LOX IMVI 19.4 µM | SK-MEL-28 46.8 µM | NCI-H460 12.2 µM | NCI-H226 40.6 µM | OVCAR-4 37.3 µM | TK-10 31.8 µM | SF-539 26.5 µM | SK-MEL-2 18.7 µM | DLD-1 15.6 µM | XF498 16.8 µM | EKVX 34.1 µM | Malme-3M 32.2 µM | SNB-75 27.2 µM | HOP-62 30.5 µM | HL-60 7.62 µM | KM12 23.8 µM | LXFL 529 13.9 µM | SN12C 31.5 µM | HCT-116 13.6 µM | MOLT-4 18.8 µM
23.1 µM: HCT-15

CSc1nnc(COc2ccc(Cl)cc2)o1
> 100 µM: HCT-15
inactive: SW-620 > 100 µM | DMS-273 > 100 µM | OVCAR-3 > 100 µM | ACHN > 100 µM | UACC-257 > 100 µM | DMS-114 > 100 µM | M14 > 100 µM | HT-29 > 100 µM | COLO 205 > 100 µM | SNB-78 > 100 µM | A549 > 100 µM | 786-0 > 100 µM | CAKI-1 > 100 µM | OVCAR-5 > 100 µM | SF-268 > 100 µM | UACC-62 > 100 µM | OVCAR-8 > 100 µM | A498 > 100 µM | UO-31 > 100 µM | NCI-H522 > 100 µM | SNB-19 > 100 µM | IGROV-1 > 100 µM | KM-20L2 > 100 µM | M19-MEL > 100 µM | SK-OV-3 > 100 µM | SF-295 > 100 µM | NCI-H23 > 100 µM | RXF 393 > 100 µM | SK-MEL-5 > 100 µM | U-251 > 100 µM | LOX IMVI > 100 µM | SK-MEL-28 > 100 µM | NCI-H460 > 100 µM | OVCAR-4 > 100 µM | TK-10 > 100 µM | SF-539 > 100 µM | DLD-1 > 100 µM | XF498 > 100 µM | EKVX > 100 µM | Malme-3M > 100 µM | SNB-75 > 100 µM | HOP-62 > 100 µM | KM12 > 100 µM | LXFL 529 > 100 µM | SN12C > 100 µM | HCT-116 > 100 µM
